Biological target: Neuronal acetylcholine receptor
Assay: Evaluated for its binding affinity towards Nicotinic acetylcholine receptor in rat brain homogenate
Assay type: tissue-based

Ki [µM]	Compound
> 10	CN1CCCC[C@H]1C[C@H](O)c1ccccc1
> 10	CN(C)CCC(O)c1ccccc1 (centres undefined)
2.49	CN1CCCCC1CCc1ccccc1 (centres undefined)
> 10	CN(CCCc1ccccc1)CCCc1ccccc1
> 10	CN(CCC(=O)c1ccccc1)CCC(=O)c1ccccc1
> 10	CN1[C@@H](CCc2ccccc2)CCC[C@H]1CCc1ccccc1 [LOBELANE]
0.005	CN1[C@@H](CC(=O)c2ccccc2)CCC[C@H]1C[C@H](Cl)c1ccccc1
2.03	C[N+]1(C)[C@@H](CC(=O)c2ccccc2)CCC[C@H]1C[C@H](O)c1ccccc1

Compound	Ki [µM]
CN1[C@@H](CC(=O)c2ccccc2)CCC[C@H]1CC(=O)c1ccccc1	7.8
CN1[C@H](CCc2ccccc2)CCC[C@@H]1C[C@@H](O)c1ccccc1 [8R-hydroxylobelane]	0.34
CN1[C@@H](C[C@@H](O)c2ccccc2)CCC[C@H]1C[C@H](O)c1ccccc1	0.3
CN1[C@@H](CCc2ccccc2)CCC[C@H]1C[C@H](O)c1ccccc1	0.235
CN1[C@H](CCc2ccccc2)CCC[C@@H]1CC(=O)c1ccccc1	0.11
CN1[C@@H](CC(=O)c2ccccc2)CCC[C@H]1/C=C/c1ccccc1	1.08

Source: ChEMBL document CHEMBL1132385 (J Med Chem, 1999)
